For assay [1], the target named is T1, human V2 receptor (Homo sapiens, UniProt P30518).
T1 construct: expressed in transfected cells; host or cells: CHO K1 (ATCC) expressing firefly luciferase under a CRE-responsive promoter
The assay can be described thus: Cellular in vitro assay for determining vasopressin receptor activity (V2, CRE-luciferase). In kind it is cell-based. The conditions noted are these: CHO cell line transfected with human V2 receptor; [Arg8]-vasopressin at EC50 concentration; read-out: IC50 hV2. The protocol:
(§1) B-1. Cellular In Vitro Assay for Determining Vasopressin Receptor Activity
(§2) The identification of agonists and antagonists of the V1a and V2 vasopressin receptors from humans, rats and dogs as well as the quantification of the activity of the compounds of the invention is carried out using recombinant cell lines. These cell lines originally derive from a hamster's ovary epithelial cell (Chinese Hamster Ovary, CHO K1, ATCC: American Type Culture Collection, Manassas, Va. 20108, USA). The test cell lines constitutively express the human, rat or dog V1a or V2 receptors. In case of the Gαq-coupled V1a receptors, cells are also stably transfected with a modified form of the calcium-sensitive photoproteins aequorin (human and rat V1a) or obelin (dog V1a), which, after reconstitution with the cofactor coelenterazine, emit light when there are increases in free calcium concentrations [Rizzuto R, Simpson A W, Brini M, Pozzan T, Nature 358, 325-327 (1992); Illarionov B A, Bondar V S, Illarionova V A, Vysotski E S, Gene 153 (2), 273-274 (1995)]. The resulting vasopressin receptor cells react to stimulation of the recombinantly expressed V1a receptors by intracellular release of calcium ions, which can be quantified by the resulting photoprotein luminescence. The Gs-coupled V2 receptors are stably transfected into cell lines expressing the gene for firefly luciferase under control of a CRE-responsible promoter. Activation of V2 receptors induces the activation of the CRE-responsive promoter via cAMP increase, thereby inducing the expression of firefly luciferase. The light emitted by photoproteins of V1a cell lines as well as the light emitted by firefly luciferase of V2 cell lines corresponds to the activation or inhibition of the respective vasopressin receptor. The bioluminescence of the cell lines is detected using a suitable luminometer [Milligan G, Marshall F, Rees S, Trends in Pharmacological Sciences 17, 235-237 (1996)].
Vasopressin V2 Receptor Cell Lines:
On the day before the assay, the cells are plated out in culture medium (DMEM/F12, 2% FCS, 2 mM glutamine, 10 mM HEPES) in 384-well microtiter plates and kept in a cell incubator (96% humidity, 5% v/v CO2, 37° C.). On the day of the assay, test compounds in various concentrations and the agonist [Arg^8]-vasopressin at EC50 concentration are added together to the wells, and plates are incubated for 3 hours in a cell incubator. Upon addition of the cell lysis reagent Triton™ and the substrate luciferin, luminescence of firefly luciferase is measured in a luminometer.
(§3) Table 1A below lists individual IC50 values for the compounds of the invention (including racemic mixtures as well as separated enantiomers) that were obtained from cell lines transfected with the human V1a or V2 receptor: […]

The target of assay [2] is T2, human V1a receptor (Homo sapiens, UniProt P37288).
T2 construct: expressed in transfected cells; host or cells: CHO K1 (ATCC), also stably transfected with a modified aequorin
The assay can be described thus: Cellular in vitro assay for determining vasopressin receptor activity (V1a, aequorin luminescence). Format: cell-based. Particulars: for IC50: CHO cell line transfected with human V1a receptor, [Arg8]-vasopressin at EC50 concentration, read-out: IC50 hV1a; for ratio IC50 hV2/hV1a: selectivity ratio IC50 hV2 / IC50 hV1a. As to the method: as §1, §2
Vasopressin V1a Receptor Cell Lines:
On the day before the assay, the cells are plated out in culture medium (DMEM/F12, 2% FCS, 2 mM glutamine, 10 mM HEPES, 5 μg/ml coelenterazine) in 384-well microtiter plates and kept in a cell incubator (96% humidity, 5% v/v CO2, 37° C.). On the day of the assay, test compounds in various concentrations are placed for 10 minutes in the wells of the microtiter plate before the agonist [Arg^8]-vasopressin at EC50 concentration is added. The resulting light signal is measured immediately in a luminometer.
as §3

Usually IC50 stands for the midpoint of a concentration-inhibition curve.

T2 sequence (P37288 whole entry): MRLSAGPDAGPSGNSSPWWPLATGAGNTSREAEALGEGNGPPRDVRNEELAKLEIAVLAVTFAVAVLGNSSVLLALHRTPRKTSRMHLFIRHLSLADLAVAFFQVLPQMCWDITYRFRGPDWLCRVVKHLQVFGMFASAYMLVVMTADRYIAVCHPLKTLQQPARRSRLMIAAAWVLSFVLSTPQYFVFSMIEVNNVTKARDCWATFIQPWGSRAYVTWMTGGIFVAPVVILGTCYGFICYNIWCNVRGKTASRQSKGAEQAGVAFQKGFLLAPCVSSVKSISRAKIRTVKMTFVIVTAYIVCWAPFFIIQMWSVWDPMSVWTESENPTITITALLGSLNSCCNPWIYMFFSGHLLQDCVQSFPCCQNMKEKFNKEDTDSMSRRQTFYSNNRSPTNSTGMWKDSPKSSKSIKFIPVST
T1 sequence (P30518 whole entry): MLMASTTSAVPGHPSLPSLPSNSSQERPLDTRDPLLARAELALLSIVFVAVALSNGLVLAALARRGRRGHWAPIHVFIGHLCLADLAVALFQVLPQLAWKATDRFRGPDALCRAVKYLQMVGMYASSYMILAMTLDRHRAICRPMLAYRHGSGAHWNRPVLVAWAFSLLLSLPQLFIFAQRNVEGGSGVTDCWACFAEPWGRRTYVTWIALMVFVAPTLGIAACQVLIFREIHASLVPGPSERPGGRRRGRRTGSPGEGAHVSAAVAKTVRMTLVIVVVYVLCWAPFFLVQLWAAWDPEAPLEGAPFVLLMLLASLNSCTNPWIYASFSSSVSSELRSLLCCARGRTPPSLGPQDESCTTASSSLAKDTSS

On to `C[C@H](O)c1nc(Cn2nc(-c3ccc(Cl)cc3)n(C[C@H](O)C(F)(F)F)c2=O)nn1-c1ncccc1OC(F)(F)F` [Example 12, 5-(4-Chlorophenyl)-2-({5-[(1S)-1-hydroxyethyl]-1-[3-(trifluoromethoxy)pyridin-2-yl]-1H-1,2,4-triazol-3-yl}methyl)-4-[(2S)-3,3,3-trifluoro-2-hydroxypropyl]-2,4-dihydro-3H-1,2,4-triazol-3-one], for which, in assay [1], the IC50 is 64.7 nM. Further, in assay [2], the IC50 stood at 5.7 nM and the “ratio IC50 hV2/hV1a” value is 11.3.
The corresponding values for `C[C@@H](O)c1nc(Cn2nc(-c3ccc(Cl)cc3)n(C[C@H](O)C(F)(F)F)c2=O)nn1-c1ncccc1F` [Example 13, 5-(4-Chlorophenyl)-2-({1-(3-fluoropyridin-2-yl)-5-[(1R)-1-hydroxyethyl]-1H-1,2,4-triazol-3-yl}methyl)-4-[(2S)-3,3,3-trifluoro-2-hydroxypropyl]-2,4-dihydro-3H-1,2,4-triazol-3-one] are 38.7 nM, 6.05 nM and 6.4.
For `C[C@H](O)c1nc(Cn2nc(-c3ccc(Cl)cc3)n(C[C@H](O)C(F)(F)F)c2=O)nn1-c1ccccn1` [Example 14, 5-(4-Chlorophenyl)-2-({5-[(1S)-1-hydroxyethyl]-1-(pyridin-2-yl)-1H-1,2,4-triazol-3-yl}methyl)-4-[(2S)-3,3,3-trifluoro-2-hydroxypropyl]-2,4-dihydro-3H-1,2,4-triazol-3-one], in that order: 65.5 nM, 6.45 nM and 10.2.
The corresponding values for `C[C@H](O)c1nc(Cn2nc(-c3ccc(Cl)cc3)n(C[C@H](O)C(F)(F)F)c2=O)nn1-c1ccc(Cl)cn1` [Example 15, 5-(4-Chlorophenyl)-2-({1-(5-chloropyridin-2-yl)-5-[(1S)-1-hydroxyethyl]-1H-1,2,4-triazol-3-yl}methyl)-4-[(2S)-3,3,3-trifluoro-2-hydroxypropyl]-2,4-dihydro-3H-1,2,4-triazol-3-one] are 11.7 nM, 8.25 nM and 1.4.
`C[C@@H](O)c1nc(Cn2nc(-c3ccc(Cl)cc3)n(C[C@H](O)C(F)(F)F)c2=O)nn1-c1ncccc1OC(F)(F)F` [Example 16, 5-(4-Chlorophenyl)-2-({5[(1R)-1hydroxyethyl]-1-[3-(trifluoromethoxy)pyridin-2-yl]-1H-1,2,4-triazol-3yl}methyl)-4-[(2S)-3,3,3-trifluoro-2-hydroxypropyl]-2,4-dihydro-3H-1,2,4-triazol-3-one]: the IC50 in assay [1] is 387 nM. In assay [2], the IC50 was found to be 13 nM and the “ratio IC50 hV2/hV1a” value is given as 29.7.
For the compound `C[C@H](O)c1nc(Cn2nc(-c3ccc(Cl)cc3)n(C[C@H](O)C(F)(F)F)c2=O)nn1-c1cccc(F)n1` [Example 17, 5-(4-Chlorophenyl)-2-({1-(6-fluoropyridin-2-yl)-5-[(1S)-1-hydroxyethyl]-1H-1,2,4-triazol-3-yl}methyl)-4-[(2S)-3,3,3-trifluoro-2-hydroxypropyl]-2,4-dihydro-3H-1,2,4-triazol-3-one], the IC50 in assay [1] is 39.5 nM; in assay [2] it was 14.5 nM. Moreover, in assay [2], the “ratio IC50 hV2/hV1a” value turned out to be 2.7.
For `C[C@H](O)c1nc(Cn2nc(-c3ccc(Cl)cc3)n(C[C@H](O)C(F)(F)F)c2=O)nn1-c1ccncc1` [Example 18, 5-(4-Chlorophenyl)-2-({5-[(1S)-1-hydroxyethyl]-1-(pyridin-4-yl)-1H-1,2,4-triazol-3-yl}methyl)-4-[(2S)-3,3,3-trifluoro-2-hydroxypropyl]-2,4-dihydro-3H-1,2,4-triazol-3-one], in that order: 199 nM, 28.6 nM and 7.0.
For the compound `C[C@H](O)c1nc(Cn2nc(-c3ccc(Cl)cc3)n(C[C@H](O)C(F)(F)F)c2=O)nn1-c1cnccn1` [Example 19, 5-(4-Chlorophenyl)-2-({5-[(1S)-1-hydroxyethyl]-1-(pyrazin-2-yl)-1H-1,2,4-triazol-3-yl}methyl)-4-[(2S)-3,3,3-trifluoro-2-hydroxypropyl]-2,4-dihydro-3H-1,2,4-triazol-3-one], in assay [1], the IC50 is 320 nM. For the same compound, in assay [2], the IC50 worked out at 29.5 nM and the “ratio IC50 hV2/hV1a” value was 10.8.
The corresponding values for `C[C@H](O)c1nc(Cn2nc(-c3ccc(Cl)cc3)n(C[C@H](O)C(F)(F)F)c2=O)nn1-c1cccnn1` [Example 20, 5-(4-Chlorophenyl)-2-({5-[(1S)-1-hydroxyethyl]-1-(pyridazin-3-yl)-1H-1,2,4-triazol-3-yl}methyl)-4-[(25)-3,3,3-trifluoro-2-hydroxypropyl]-2,4-dihydro-3H-1,2,4-triazol-3-one] are 235 nM, 47.6 nM and 4.9.
The corresponding values for `COc1nccnc1-n1nc(Cn2nc(-c3ccc(Cl)cc3)n(C[C@H](O)C(F)(F)F)c2=O)nc1[C@H](C)O` [Example 21, 5-(4-Chlorophenyl)-2-({5-[(1S)-1-hydroxyethyl]-1-(3-methoxypyrazin-2-yl)-1H-1,2,4-triazol-3-yl}methyl)-4-[(2S)-3,3,3-trifluoro-2-hydroxypropyl]-2,4-dihydro-3H-1,2,4-triazol-3-one] are 46 nM, 49 nM and 0.9.
For `C[C@H](O)c1nc(Cn2nc(-c3ccc(Cl)cc3)n(C[C@H](O)C(F)(F)F)c2=O)nn1-c1nccn1C` [Example 22, 5-(4-Chlorophenyl)-2-({5-[(1S)-1-hydroxyethyl]-1-(1-methyl-1H-imidazol-2-yl)-1H-1,2,4-triazol-3-yl}methyl)-4-[(2S)-3,3,3-trifluoro-2-hydroxypropyl]-2,4-dihydro-3H-1,2,4-triazol-3-one], in that order: 138 nM, 68.1 nM and 2.0.
Take `C[C@@H](O)c1nc(Cn2nc(-c3ccc(Cl)cc3)n(C[C@H](O)C(F)(F)F)c2=O)nn1-c1ccccn1` [Example 23, 5-(4-Chlorophenyl)-2-({5-[(1R)-1-hydroxyethyl]-1-(pyridin-2-yl)-1H-1,2,4-triazol-3-yl}methyl)-4-[(2S)-3,3,3-trifluoro-2-hydroxypropyl]-2,4-dihydro-3H-1,2,4-triazol-3-one]: the IC50 in assay [1] was determined as 103 nM. In addition, in assay [2], the IC50 came out at 86.5 nM and the “ratio IC50 hV2/hV1a” value stood at 1.2.
In the case of `C[C@H](O)c1nc(Cn2nc(-c3ccc(Cl)cc3)n(C[C@H](O)C(F)(F)F)c2=O)nn1-c1ncccc1C(F)(F)F` [Example 30, 5-(4-chlorophenyl)-2-({5-[(1S)-1-hydroxyethyl]-1-[3-(trifluoromethyl)pyridin-2-yl]-1H-1,2,4-triazol-3-yl}methyl)-4-[(2S)-3,3,3-trifluoro-2-hydroxypropyl]-2,4-dihydro-3H-1,2,4-triazol-3-one], in assay [1], the IC50 was found to be 48.5 nM. In assay [2], the IC50 amounted to 3.3 nM and the “ratio IC50 hV2/hV1a” value was found to be 14.9.
The corresponding values for `C[C@@H](O)c1nc(Cn2nc(-c3ccc(Cl)cc3)n(C[C@H](O)C(F)(F)F)c2=O)nn1-c1ncccc1C(F)(F)F` [Example 31, 5-(4-chlorophenyl)-2-({5-[(1R)-1-hydroxyethyl]-1-[3-(trifluoromethyl)pyridin-2-yl]-1H-1,2,4-triazol-3yl}methyl)-4-[(2S)-3,3,3-trifluoro-2-hydroxypropyl]-2,4-dihydro-3H-1,2,4-triazol-3-one] are 170 nM, 4.9 nM and 35.1.
